Data set [1] concerns human multiple myeloma NCI-H929 xenograft tumors. Description: In vivo activity of combination therapy with bortezomib or tazemetostat against NCI-H929 transplanted tumor. Further details: species or system NOD/SCID mice. The note with it: I-8 3 mg/kg QD; for Average volume (mm^3) (Day 10) / Tumor inhibition rate TGI (%) / Initial volume (mm^3): Bort 1 mg/kg BIW, Taze 100 mg/kg QD, combinations given as + Bort 3 mg/kg BIW / + Taze 3 mg/kg QD; for Initial volume (mm^3): baseline. The method, then:
In this example, the human multiple myeloma NCI-H929 cell line was selected as the cell model to determine the inhibitory effects of compounds, bortezomib (Bort), and tazemetostat (Taze), as single drugs and in combination, on the growth of NOD/SCID mouse transplanted tumors of NCI-H929 tumor cells. The evaluation methods and results are described below.
(§1) Human multiple myeloma NCI-H929 cells were routinely cultured in RPMI1640 containing 10% fetal bovine serum at 37°C in a 5% CO2 incubator. After three passages in vitro, when the cells reached over 80% confluence and the required confluence rate, the cells were digested and harvested. After washing with PBS, the cells were counted and the cell concentration was adjusted to approximately 5 × 10^7 cells/mL. The cells were then placed in 4 mL centrifuge tubes on ice for later use.
(§2) Female NOD/SCID mice aged 4-5 weeks were selected and subcutaneously inoculated with NCI-H929 cells ectopically. The mice were held in a lateral position, the forelimb axilla was disinfected with 75% alcohol, and 100 µL of the cell suspension was injected subcutaneously into the axilla using a 1 mL syringe ([…]/100 µL).
After the tumors grew to 90-150 mm^3, the animals were randomly divided into groups, 8 mice in each group, and administered according to different administration methods as follows: • Model control group: Administered with the same volume of Vehicle (DMSO: 0.5% sodium carboxymethyl cellulose: distilled water = 1:1:8) daily by gavage; • Test group 1: administered with I-8 solution at 3 mg/kg (mouse body weight) daily by gavage; • Test group 2: administered with bortezomib (Bort) solution at 1 mg/kg (mouse body weight) twice weekly by gavage; • Test group 3: administered with tazemetostat solution at 100 mg/kg (mouse body weight) daily by gavage; • Test group 4: administered with I-8 at 3 mg/kg (mouse body weight) daily by gavage and bortezomib (Bort) solution at 1 mg/kg (mouse body weight) twice weekly by gavage; • Test group 5: administered with I-8 at 3 mg/kg (mouse body weight) daily by gavage and tazemetostat (Taze) solution at 100 mg/kg (mouse body weight) daily by gavage;
(§3) The route of administration was oral gavage, and the administration frequency was once daily, for 10 consecutive days. The first day of administration was defined as Day 1 of the experiment. Tumor volume changes in mice were measured and recorded every two days. Tumor volume was measured using a vernier caliper, in which the major axis (a) and minor axis (b) of the tumor were measured, and the tumor volume was calculated as tumor volume V (mm^3) = a x b^2/2. After the experiment, the mice were dissected and the tumor weight was measured. The data were entered and statistically analyzed using GraphPad Prism 6 software. The data are expressed as mean ± SEM (Standard Error of Mean), and one-way ANOVA was used. P ≤ 0.05 was considered statistically significant.

Data set [2] shares this test system. Description: In vivo antitumor activity against NCI-H929 transplanted tumors. More on the design: species or system NOD/SCID mice. The note with it: QD; for Tumor inhibition rate TGI (%) / Average volume (mm^3) (Day 10) / Initial volume (mm^3): oral gavage; for Tumor inhibition rate TGI (%): 10 consecutive days; for Initial volume (mm^3): baseline. As to the method: In this example, the human multiple myeloma NCI-H929 cell line was used as the cell model. The inhibitory effects of compounds on the growth of NOD/SCID mouse transplanted tumors of NCI-H929 tumor cells were determined. The evaluation methods and results are described below.
as §1, §2
After the tumors grew to 90-150 mm^3, the animals were randomly divided into groups, 8 mice in each group, and administered according to different administration methods as follows: • Model control group: Administered with the same volume of Vehicle (DMSO: 0.5% sodium carboxymethyl cellulose: distilled water = 1:1:8) daily by gavage; • Control drug group 1: administered with pomalidomide solution at 10 mg/kg (mouse body weight) daily by gavage; • Control drug group 2: administered with CC-220 solution at 3 mg/kg (mouse body weight) daily by gavage; • Control drug group 3: administered with CC-220 solution at 10 mg/kg (mouse body weight) daily by gavage; • Experimental compound group 4: administered with compound I-4 solution at 3 mg/kg (mouse body weight) daily by gavage; • Experimental compound group 5: administered with compound I-4 solution at 10 mg/kg (mouse body weight) daily by gavage; • Experimental compound group 6: administered with compound I-8 solution at 3 mg/kg (mouse body weight) daily by gavage; • Experimental compound group 7: administered with compound I-8 solution at 10 mg/kg (mouse body weight) daily by gavage;
as §3

The test system is the same in data set [3]. Description: In vivo activity in combination with dexamethasone against NCI-H929 transplanted tumor. The note with it: each drug 3 mg/kg, QD, oral gavage, alone or combined. More on the design: species or system NOD/SCID mice. As to the method: In this example, human multiple myeloma NCI-H929 cell line was selected as the cell model to determine the inhibitory effects of compound and dexamethasone alone, as well as combination thereof on the growth of NOD/SCID mouse transplanted tumors of NCI-H929 tumor cells. The evaluation methods and results are described below.
as §1, §2
After the tumors grew to 90-150 mm^3, the animals were randomly divided into groups, 8 mice in each group, and administered according to different administration methods as follows: • Model control group: Administered with the same volume of Vehicle (DMSO: 0.5% sodium carboxymethyl cellulose: distilled water = 1:1:8) daily by gavage; • Test group 1: administered with dexamethasone (Dex) solution at 3 mg/kg (mouse body weight) daily by gavage; • Test group 2: administered with I-4 solution at 3 mg/kg (mouse body weight) daily by gavage; • Test group 3: administered with I-8 solution at 3 mg/kg (mouse body weight) daily by gavage; • Test group 4: administered with dexamethasone at 3 mg/kg (mouse body weight) and 1-4 solution at 3 mg/kg (mouse body weight) daily by gavage; • Test group 5: administered with dexamethasone at 3 mg/kg (mouse body weight) and I-8 solution at 3 mg/kg (mouse body weight) daily by gavage;
as §3

The subject of data set [4] is MV-4-11 cells. Description: Antiproliferative activity, CCK-8 assay. As to conditions: Homo sapiens, MV4-11; 144 hours incubation, CCK-8, absorbance at 450 nm. The format is cell-based. The method, then: (§4) The cell models used in this example were human hematologic tumor cells, including NCI-H929, RPMI-8226, MV-4-11, U937 and WSU-DLCL-2. Some of the compounds of the present invention were selected to determine their inhibitory activity against the proliferation of NCI-H929, RPMI-8226, MV-4-11, U937, and WSU-DLCL-2 cells.
(§5) • ① The selected compounds were dissolved in DMSO to prepare 10 mM stock solutions. Compounds used within three months should be stored at room temperature in a desiccator; others could be stored at -20°C for long-term storage. • ② The above stock solutions and the positive reference compound pomalidomide were diluted with DMSO. Their initial concentrations were 10 µM. In the experiments of NCI-H929 and RPMI-8226 cells, 3-fold serial dilution with 11 concentration points was performed, with the lowest concentration of 0.00047 µM. The resulting solutions were shaken on a shaker for 5 minutes.
(§6) • ① The NCI-H929, RPMI-8226, MV-4-11, U937, and WSU-DLCL-2 cells in logarithmic growth phase were inoculated in a 96-well plate, 20,000 to 30,000 cells per well, and the plate was pre-cultured for 24 hours in an incubator (at 37°C and 5% CO2). • ② The culture medium in the plate was replaced, and the compounds and the positive control with corresponding concentrations were added to the plated at a volume of 50 µl. • ③ The plate was incubated for 144 hours in an incubator, then 15 µl of CCK-8 solution was added to each well, and incubated in the incubator for another 1-4 hours. • ④ The absorbance at 450 nm was measured using a microplate reader.
(§7) • ① Calculating % Inhibition: [formula] • ② Calculating IC50 value of compound and plotting dose-response curve: The IC50 value was calculated by fitting the % Inhibition and the logarithm of compound concentration to a nonlinear regression (dose response-variable slope) by using GraphPad 6.0. • Y = Bottom + (Top - Bottom) / (1 + 10^((LogIC50 - X) * HillSlope)) • X: log of inhibitor concentration; Y: % Inhibition.
(§8) After calculating % Inhibition, a dose-response curve was plotted with the logarithm of the test compound concentration as the x-axis and the average cell viability as the y-axis, and the IC50 value was obtained by fitting.
In general terms: Tetrazolium assays rely on reduction of a dye to a coloured formazan, in cell work by metabolically active cells.

Data set [5] has as its system WSU-DLCL-2 cells. Description: Antiproliferative activity, CCK-8 assay. As to conditions: Homo sapiens, WSUDLCL2; 144 hours incubation, CCK-8, absorbance at 450 nm. The data set is classed as cell-based. As to the method:
as §4, §5, §6, §7, §8

For data set [6], the system named is U937 cells. Briefly: Antiproliferative activity, CCK-8 assay. The data set is classed as cell-based. As to conditions: Homo sapiens, U-937; 144 hours incubation, CCK-8, absorbance at 450 nm. The method, then:
as §4, §5, §6, §7, §8

Data set [7] concerns NCI-H929 cells. Description: Antiproliferative activity, CCK-8 assay. The format is cell-based. The note with it: Homo sapiens, 144 hours incubation, CCK-8, absorbance at 450 nm, read-out: IC50 (µM) H-929. The method, then: as §4, §5, §6, §7, §8
The test system of data set [8] is RPMI-8226 cells. Briefly: Antiproliferative activity, CCK-8 assay. The format is cell-based. The note with it: Homo sapiens, 144 hours incubation, CCK-8, absorbance at 450 nm. The method, then: as §4, §5, §6, §7, §8

Turning to `CC(C)C[C@H](NC(=O)[C@H](Cc1ccccc1)NC(=O)c1cnccn1)B(O)O` [Bort, bortezomib], in data set [1], the “Average volume (mm^3) (Day 10)” value was determined as 1249.7 mm^3, the “Tumor inhibition rate TGI (%)” value turned out to be 30.78% and the “Initial volume (mm^3)” value is 100.6 mm^3. In addition, the “growth of NCI-H929 transplanted tumors (in words)” value in data set [1] (bortezomib 1 mg/kg BIW, tazemetostat 100 mg/kg QD, alone or combined) is recorded as “weaker tumor-inhibiting abilities”.

With `O=C1CC[C@H](N2Cc3c(OCc4ccc(CN5CCOCC5)cc4)cccc3C2=O)C(=O)N1` [CC-220, reference compound], in data set [2] (3 mg/kg), the “Tumor inhibition rate TGI (%)” value is recorded as 77.98%, the “Average volume (mm^3) (Day 10)” value came to 643.1 mm^3 and the “Initial volume (mm^3)” value is 214.6 mm^3. Also, in data set [2] (10 mg/kg), the “Tumor inhibition rate TGI (%)” value was determined as 100.09%, the “Average volume (mm^3) (Day 10)” value is 205.5 mm^3 and the “Initial volume (mm^3)” value is 207.2 mm^3. In data set [2] (10 mg/kg, during the experiment, Figure 2B), the body weight result was “decreasing trend in body weight”.

`C[C@@H]1C[C@H]2[C@@H]3CCC4=CC(=O)C=C[C@]4(C)[C@@]3(F)[C@@H](O)C[C@]2(C)[C@@]1(O)C(=O)CO` [Dex, dexamethasone, reference compound]: the “Tumor inhibition rate TGI (%)” value in data set [3] (10 consecutive days) is given as 45.48%. Besides, the “Average volume (mm^3) (Day 10)” value in data set [3] (Day 10) was 1048.6 mm^3. Also, the “Initial volume (mm^3)” value in data set [3] (baseline) is given as 185.7 mm^3.

Usually IC50 stands for the midpoint of a concentration-inhibition curve. With `CN1Cc2c(NCc3ccc(CN4CCOCC4)cc3)cccc2C(=O)N1C1CCC(=O)NC1=O` (stereo not shown) [I-1, 3-(3-methyl-5-((4-(morpholinomethyl)benzyl)amino)-1-oxo-3,4-dihydrophthalazin-2(1H)-yl)piperidin-2,6-dione], the IC50 in data set [4] was 3.43 µM; in data set [5] it was 0.358 µM; in data set [6], 1.32 µM.

In the case of `CNc1cccc2c1CN(C)N(C1CCC(=O)NC1=O)C2=O` (stereo not shown) [I-2, 3-(3-methyl-5-(methylamino)-1-oxo-3,4-dihydrophthalazin-2(1H)-yl)piperidin-2,6-dione], the half-inhibitory concentration (IC50) in data set [4] was > 10 µM; in data set [7], 0.311 µM; in data set [8], 8.31 µM; in data set [5], 1.06 µM; in data set [6] it was 1.33 µM.

As to `CN1Cc2c(NCc3ccc(CN4CCN(c5ccccc5)CC4)cc3)cccc2C(=O)N1C1CCC(=O)NC1=O` (stereo not shown) [I-3, 3-(3-methyl-1-oxo-5-((4-((4-phenylpiperazin-1-yl)methyl)benzyl)amino)-3,4-dihydrophthalazin-2(1H)-yl)piperidin-2,6-dione], the IC50 was found to be 1.39 µM in data set [4], 1.3 µM in data set [7], 0.279 µM in data set [5] and 1.11 µM in data set [6].

For the compound `CN1Cc2c(NCc3ccc(CN4CCN(C(=O)OC(C)(C)C)CC4)cc3)cccc2C(=O)N1C1CCC(=O)NC1=O` (stereo not shown) [I-5, tert-butyl 4-(4-(((2-(2,6-dioxopiperidin-3-yl)-3-methyl-1-oxo-1,2,3,4-tetrahydrophthalazin-5-yl)amino)methyl)benzyl)piperazin-1-carboxylate], the half-inhibitory concentration (IC50) was 0.174 µM in data set [4]; 0.243 µM in data set [7]; 0.641 µM in data set [8]; 0.108 µM in data set [5]; 0.666 µM in data set [6].

`CCN(c1cc(-c2ccc(CN3CCOCC3)cc2)cc(C(=O)NCc2c(C)cc(C)[nH]c2=O)c1C)C1CCOCC1` [Taze, tazemetostat]: in data set [1], the “Average volume (mm^3) (Day 10)” value came out at 1558.0 mm^3, the “Tumor inhibition rate TGI (%)” value was found to be 12.83% and the “Initial volume (mm^3)” value is on record as 110.8 mm^3.

For the origin of these results see patent EP4722203A1, “3,4-DIHYDROPHTHALAZIN-1(2H)-ONE DERIVATIVE, AND PREPARATION METHOD THEREFOR AND USE THEREOF” (Academy of Military Medical Sciences, priority 2023, dated 2024).
